Measurements reported in US12208118B2, “Pharmaceutical compositions for delivery of peptide” (ANYA BIOPHARM INC., priority 2017, dated 2025).

Assays:
Human Carboxypeptidase B = target: T1, Human Carboxypeptidase B (Homo sapiens, UniProt P15086); assay: Oxidative inactivation of Carboxypeptidase by combinations of metal salts and reducing agents (enzymatic activity); assay type: biochemical; conditions: reducing agent 1 mM, metal salt 5 μM, compared with original activity, in % (unit assumed)
T1 sequence (P15086 111-417): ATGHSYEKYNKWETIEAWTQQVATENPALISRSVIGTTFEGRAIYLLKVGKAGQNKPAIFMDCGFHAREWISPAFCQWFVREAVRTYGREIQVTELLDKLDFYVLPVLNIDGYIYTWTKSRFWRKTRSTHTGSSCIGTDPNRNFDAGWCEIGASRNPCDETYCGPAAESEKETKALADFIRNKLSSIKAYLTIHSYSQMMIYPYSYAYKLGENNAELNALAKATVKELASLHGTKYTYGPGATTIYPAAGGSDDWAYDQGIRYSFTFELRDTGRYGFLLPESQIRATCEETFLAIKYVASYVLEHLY
Method: (§1) Enzyme Activity Assay: The assay of enzymatic activity of each enzyme in the presence of its specific substrate was performed at a particular wavelength by using UV spectrophotometer, and it served as a negative control. The enzyme activity was calculated as: […]
(§2) Enzyme Inhibition Assay: Incubation was performed with inhibitor of each enzyme, which served as a positive control.
(§3) Incubation with metal ion(s) and reducing agent(s): Incubation of enzymes with combination of metal salt(s) and reducing agent(s) in microtitre 96 well plate was done for a specific period of time in presence of substrates to examine their oxidative inactivation. Inactivation of enzyme in presence of metal ion(s) and reducing agent(s) was compared with the original enzyme activity in the presence of substrate as a negative control and in the presence of inhibitor as a positive control.
Assay for Enzymatic Activity of Carboxypeptidase B Using Hippuryl-Arginine
4 units of Carboxypeptidase B in cold deionized water, 1 mm Hippuryl-Arginine solution in 25 mM Iris Buffer solution containing 100 mM Sodium Chloride (pH 7.65) were prepared, separately at about 25° C. 3 ml reaction mixtures (Test and blank) were prepared using above prepared solutions according to Table 9 at 25° C. […]
(§4) For a 200 μl reaction mixture, about 10 μl Carboxypeptidase was incubated in buffer with the combination of metal salts and reducing agents (provided in Table 2 at serial number 1 through 31) at respective concentration at 37° C. in 96 well microtitre plates (Table 3 hereinabove provides details on utilization of a particular combination from those provided at serial number 1 through 31 in Table 2) for 5 min, 15 min and 30 min followed by the addition of respective 90 μl substrate (provided in Table 1A). The enzyme activity was measured spectrophotometrically in a microplate reader, and was compared with original activity assay. The pH was measured by Hanna Combination pH electrode (reaction with enzyme was performed in triplicates). […]

Porcine Aminopeptidase M = target: T2, Porcine Aminopeptidase M (Sus scrofa, UniProt P15145); assay: Oxidative inactivation of Aminopeptidase by combinations of metal salts and reducing agents (enzymatic activity); assay type: biochemical; conditions: compared with original activity, in % (unit assumed)
T2 sequence (P15145 1-963): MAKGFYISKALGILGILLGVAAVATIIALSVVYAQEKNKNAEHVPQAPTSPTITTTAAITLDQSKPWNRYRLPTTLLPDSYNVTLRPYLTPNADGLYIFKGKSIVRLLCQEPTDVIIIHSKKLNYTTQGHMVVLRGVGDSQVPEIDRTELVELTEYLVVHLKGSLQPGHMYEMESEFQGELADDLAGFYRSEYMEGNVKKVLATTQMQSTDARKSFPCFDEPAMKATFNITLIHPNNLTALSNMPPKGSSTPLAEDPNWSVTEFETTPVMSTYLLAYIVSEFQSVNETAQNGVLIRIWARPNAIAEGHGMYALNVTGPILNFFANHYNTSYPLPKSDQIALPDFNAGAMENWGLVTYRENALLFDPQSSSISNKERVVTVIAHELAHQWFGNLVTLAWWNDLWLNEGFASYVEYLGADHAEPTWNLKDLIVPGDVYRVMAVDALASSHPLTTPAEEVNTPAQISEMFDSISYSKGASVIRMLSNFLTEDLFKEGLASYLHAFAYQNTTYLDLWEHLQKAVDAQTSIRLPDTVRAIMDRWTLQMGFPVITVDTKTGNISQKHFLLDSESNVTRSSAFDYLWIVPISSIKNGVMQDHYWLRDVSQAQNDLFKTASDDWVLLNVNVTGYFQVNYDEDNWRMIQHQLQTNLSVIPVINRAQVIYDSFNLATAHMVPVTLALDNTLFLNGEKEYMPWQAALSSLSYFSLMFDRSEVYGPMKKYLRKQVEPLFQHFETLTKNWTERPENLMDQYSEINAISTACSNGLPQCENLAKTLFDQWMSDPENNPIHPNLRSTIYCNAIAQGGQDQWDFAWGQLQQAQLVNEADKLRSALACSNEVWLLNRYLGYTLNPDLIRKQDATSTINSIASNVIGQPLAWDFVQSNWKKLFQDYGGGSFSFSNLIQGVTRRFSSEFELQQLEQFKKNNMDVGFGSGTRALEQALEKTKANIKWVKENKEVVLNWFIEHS
Method: as §1, §2, §3
To Assay the Enzymatic Activity of Aminopeptidase M Using L-Leucine-p-Nitroanilide
1 mM Tricine solution (Prepared in 100 ml deionized water, Reagent A) and 50 mM L-Leucine-p-nitroanilide solution in absolute methanol (Reagent B) were prepared, separately. […] Reagent G, Reagent E and Reagent F were mixed immediately by inversion to prepare test and blank solution as directed in table 12, and the increase in ΔA405 nm was recorded for approximately 5 minutes. ΔA405 nm/minute was obtained using maximum linear rate for both the Test and blank solution. […]
as §4, with “Aminopeptidase” for “Carboxypeptidase”, “assay.” for “assay. The pH was measured by Hanna Combination pH electrode (reaction with enzyme was performed in triplicates).”

[1] = Quantification of insulin glargine level in STZ induced diabetic rat plasma (Glargine ELISA), bioavailability; assay type: in vivo, S.D. rats; conditions: following subcutaneous and mid-jejunum administration, rats
Method: (§5) Quantification of Glucose & Insulin Glargine Level in STZ Induced Diabetic Rat Plasma
(§6) Glucose & insulin glargine levels in plasma were quantified after dosing several formulations of insulin glargine to mid-jejunum in STZ induced diabetic S.D. rats.
(§7) Test formulation I: Insulin glargine (Lantus®)—Appearance: Solution for injection in a prefilled pen; Concentration: 100 IU/ml; Storage condition: 2-8° C.; Dose: 0.2 U/kg; Route: SC.
(§8) Test formulation II: Insulin glargine Formulation—MIRA 1 (Reduced glutathione/Chromium Picolinate of Table 15A)+Permeation Enhancer 1 (PA 1 of Table 16A) (oral solution in TRIS buffer)—Dose: 1.7 U/animal; Route: mid-jejunum
(§9) Test formulation III: Insulin glargine Formulation—PA 2 (of Table 16B) and MIRA 2 (Ascorbate Sodium/Vanadium Oxide of Table 15B) (oral solution in TRIS buffer)—Dose: 1.7 U/animal; Route: mid-jejunum.
The clinical signs observed are normal. […] Glucose was measured immediately after blood collection using Glucometer. […]
Principle: This Glargine ELISA is a two-site immunoassay, employing a monoclonal antibody immobilised on microtitre wells and a soluble antibody labelled with horseradish peroxidase (HRP). […] The intensity of the colour developed in each well is quantified in a microtitre plate reader set to record transmitted light at a wavelength of 450 nm (Kit Protocol: Used manufacturer recommended protocol Cat. No. MBS495369) […]

[2] = system: STZ induced diabetic S.D. rats; assay: Glucose level in STZ induced diabetic rats after different formulations (Glucometer, % inhibition); assay type: in vivo; conditions: glucose by Glucometer
Method: as §5, §6, §7, §8, §9
The clinical signs observed are normal. With respect to sampling time points, during dosing, the blood collection time points was at 0, 20, 40, 60, 120 and 150 minutes post dose. ˜100 μl of blood was collected in a pre-filled Na-EDTA eppendorf, from retro-orbital sinus puncture. Blood was centrifuged at 5000 rpm, 5 min, 4° c. to obtain plasma. Glucose was measured immediately after blood collection using Glucometer.

Row | Compound | Enzymatic activity of Carboxypeptidase (Human Carboxypeptidase B; incubation 5 min at 37° C.) | Enzymatic activity of Carboxypeptidase (Human Carboxypeptidase B; incubation 15 min at 37° C.) | Enzymatic activity of Carboxypeptidase (Human Carboxypeptidase B; incubation 30 min at 37° C.) | Enzymatic activity of Aminopeptidase (Porcine Aminopeptidase M; Time 5 min incubation at 37° C.) | Enzymatic activity of Aminopeptidase (Porcine Aminopeptidase M; Time 15 min incubation at 37° C.) | Enzymatic activity of Aminopeptidase (Porcine Aminopeptidase M; Time 30 min incubation at 37° C.) | clinical signs [1] | mortality [1] | % inhibition ([2]; 20 min post dose) [%] | % inhibition ([2]; 40 min post dose) [%] | % inhibition ([2]; 60 min post dose) [%] | % inhibition ([2]; 120 min post dose) [%] | % inhibition ([2]; 150 min post dose) [%]
1 | O=C(/C=C/C=C/c1ccc2c(c1)OCO2)N1CCCCC1 [Piperine] | 104.5 | 91.7 | 62.26 | 108 | 100.4 | 80.52 |  |  |  |  |  |  | 
2 | Insulin glargine |  |  |  |  |  |  | normal | no mortality observed | 22.9 | 25.5 | 22 | 39 | 17.2
